This is an account of results in PMC8948984, “Diversified Chaetoglobosins from the Marine-Derived Fungus Emericellopsis sp. SCSIO41202” (Molecules, 2022).

Read-outs that look alike come from different tables or passages of the source.

Experiment [1] deals with acetylcholinesterase (AChE) (Homo sapiens, UniProt P22303). Kind of experiment: biochemical. How it is done: The inhibitory effects of 4–13 on AChE were measured in vitro in 96-well plates as previously described.
The subject of another experiment is PC-3 cells. Nature of the experiment: CCK-8 cytotoxicity assay, PC-3 cells. The experiment is classed as cell-based. How it is done: Compounds 4–13 were tested for their cytotoxicity against two prostatic carcinoma cell lines, PC-3 and 22Rv1, according to the reported CCK-8 (Dojindo) method. In brief, cells were seeded in a 96-well plate at the appropriate cell concentration and then incubated for 24 h at 37 °C in a 100% relative humidity, 5% CO2 incubator. Compounds to be tested were diluted to the appropriate concentration with culture medium, and the amount of each compound was adjusted to 25 μL before adding to the cells. Docetaxel (S1148, Selleck) was used as a positive control. The medium was aspirated, a fresh complete medium with 10% CCK-8 was added to incubate in a 37 °C incubator for 2-4 h, and the absorbance of the soultion at 450 nm was measured by an Envision 2104 multilabel reader (PerkinElmer). The inhibition rate was calculated by taking the absorbance at 650 nm as a reference.
For orientation: Tetrazolium dyes change colour on reduction, which living cells bring about.

Setting [2] is: in vitro, 96-well plates, read-out: AChE inhibitory activity IC50.

acetylcholinesterase (AChE), sequence (P22303 32-614, species assumed): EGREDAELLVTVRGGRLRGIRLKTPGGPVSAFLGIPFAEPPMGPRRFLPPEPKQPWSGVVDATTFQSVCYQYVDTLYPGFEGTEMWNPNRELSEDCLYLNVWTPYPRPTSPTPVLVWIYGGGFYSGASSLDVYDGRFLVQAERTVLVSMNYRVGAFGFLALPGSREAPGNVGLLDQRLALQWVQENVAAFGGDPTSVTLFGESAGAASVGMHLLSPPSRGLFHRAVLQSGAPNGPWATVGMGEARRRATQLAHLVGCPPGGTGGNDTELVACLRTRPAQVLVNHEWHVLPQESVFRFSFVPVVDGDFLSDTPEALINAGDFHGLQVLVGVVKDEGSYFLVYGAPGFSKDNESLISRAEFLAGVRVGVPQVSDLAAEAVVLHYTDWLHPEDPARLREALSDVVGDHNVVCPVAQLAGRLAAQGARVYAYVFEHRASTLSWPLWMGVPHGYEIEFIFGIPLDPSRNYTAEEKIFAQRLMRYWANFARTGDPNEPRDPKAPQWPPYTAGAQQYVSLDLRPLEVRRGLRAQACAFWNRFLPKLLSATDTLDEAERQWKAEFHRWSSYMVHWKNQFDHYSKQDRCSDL

The term IC50 denotes the concentration that gives 50% inhibition. For the compound `CC1=C(C)[C@H]2[C@H](Cc3c[nH]c4ccccc34)NC(=O)[C@]23C(=O)CC[C@H](O)C(=O)/C(C)=C/[C@@H](C)C/C=C/[C@H]3[C@@H]1O` [Compound 4, chaetoglobosin E], in experiment [1] (setting [2]), the IC50 came to 4.15 µM.

Turning to `CC1=C(C)[C@H]2[C@H](Cc3c[nH]c4ccccc34)NC(=O)[C@]23C(=O)CCC(=O)C(=O)/C(C)=C/[C@@H](C)C/C=C/[C@H]3[C@@H]1O` [Compound 6, chaetoglobosin G], the midpoint of inhibition in experiment [1], the IC50, lay at 8.71 µM.

`C=C1[C@@H](C)[C@H]2[C@H](Cc3c[nH]c4ccccc34)NC(=O)[C@]23C(=O)CC[C@H](O)C(=O)/C(C)=C/[C@@H](C)C/C=C/[C@H]3[C@@H]1O` [Compound 5, chaetoglobosin Fex]: the IC50 with PC-3 cells (Homo sapiens, PC-3, read-out: IC50 against PC-3 cells, prostatic carcinoma cell line PC-3, CCK-8, triplicate) came out at 2.32 µM; with PC-3 cells (read-out: IC50 against PC-3 cells, prostatic carcinoma cell line PC-3, CCK-8, triplicate, listed as C5), 2.32 µM; in experiment [1], 31.7 µM.

Take `CC1=C(O)C(=O)[C@@H]2CC(=O)[C@@]34C(=O)N[C@@H](Cc5c[nH]c6ccccc56)[C@@H]3C(C)=C(C)[C@@H](O)[C@@H]4/C=C/C[C@H](C)[C@@H]12` [Compound 9, chaetoglobosin Vb]: the IC50 in experiment [1] (setting [2]) worked out at 23.7 µM.

Turning to `CC1=C(O)C(=O)[C@H]2CC(=O)[C@@]34C(=O)N[C@@H](Cc5c[nH]c6ccccc56)[C@@H]3C(C)=C(C)[C@@H](O)[C@@H]4/C=C/C[C@H](C)[C@H]12` [Compound 8, chaetoglobosin V], in experiment [1] (setting [2]), the IC50 amounted to 1.31 µM.

For `CC(=O)O[C@@]12CO[C@@H]1C[C@H](O)[C@@]1(C)C(=O)[C@H](O)C3=C(C)[C@@H](OC(=O)[C@H](O)[C@@H](NC(=O)OC(C)(C)C)c4ccccc4)C[C@@](O)([C@@H](OC(=O)c4ccccc4)[C@H]21)C3(C)C` [docetaxel, reference compound], in the experiment on PC-3 cells (Homo sapiens, prostatic carcinoma cell line PC-3, CCK-8, triplicate, read-out: IC50 against PC-3 cells), the IC50 is 0.12 µM.
